Source: US9121806B1, “Impedance spectroscopy-based cellular analysis device” (University of South Florida, priority 2007, dated 2015)

Tested on: OvCa429 cells
Test: Effect of trypsin on confluent OvCa429 cell culture monitored by impedance phase angle mapping
Format: cell-based
Details: 20 μl of trypsin added to culture medium after 5 h of monitoring, approximately 80% confluence, monitored over 18 h
Method: Ovarian cancer line OvCa429 were grown in M199 and MCDB 105 (1:1) (Sigma, St Louis, Mo.) supplemented with 10% fetal calf serum (Sigma), 2 mM L-glutamine, 100 units ml-1 penicillin and 100 μgml-1 streptomycin under 5% CO2, and 37 .C high-humidity atmosphere. The cell culture medium was changed every 2-3 days, depending on the rate of cell growth. Cells were sub-cultured using 1× trypsin solution directly on the multielectrode device Impedance data were taken at room temperature of about 22° C. After each recording the cells were placed back in to the incubator. The cell culture medium was not changed throughout the course of the experiment. Impedance measurements were recorded on two separate devices (control and variable) beginning at approximately 80% confluence of the OvCa culture. After 5 h of recording measurements at an interval of approximately 1 h, 20 μl of trypsin was added to the cell culture medium of variable. Trypsin was not added to the control. The impedance was recorded under room conditions and the devices were placed back in the incubator after each measurement frame.
In order to affirm the utility of impedance mapping for tracking physiological changes, the effect of trypsin on the confluent cell culture was analyzed. […] FIG. 6 is the phase angle mapping of control and trypsinized cultures monitored over a period of 18 h.

trypsin
effect of trypsin on the confluent cell culture (phase angle shape / cell detachment): detached the cells from the substrate
